One series concerns the target T1, IL-23R (Homo sapiens, UniProt Q5VWK5).
T1 construct: host or cells: HEK293
T1 sequence (Q5VWK5 24-629): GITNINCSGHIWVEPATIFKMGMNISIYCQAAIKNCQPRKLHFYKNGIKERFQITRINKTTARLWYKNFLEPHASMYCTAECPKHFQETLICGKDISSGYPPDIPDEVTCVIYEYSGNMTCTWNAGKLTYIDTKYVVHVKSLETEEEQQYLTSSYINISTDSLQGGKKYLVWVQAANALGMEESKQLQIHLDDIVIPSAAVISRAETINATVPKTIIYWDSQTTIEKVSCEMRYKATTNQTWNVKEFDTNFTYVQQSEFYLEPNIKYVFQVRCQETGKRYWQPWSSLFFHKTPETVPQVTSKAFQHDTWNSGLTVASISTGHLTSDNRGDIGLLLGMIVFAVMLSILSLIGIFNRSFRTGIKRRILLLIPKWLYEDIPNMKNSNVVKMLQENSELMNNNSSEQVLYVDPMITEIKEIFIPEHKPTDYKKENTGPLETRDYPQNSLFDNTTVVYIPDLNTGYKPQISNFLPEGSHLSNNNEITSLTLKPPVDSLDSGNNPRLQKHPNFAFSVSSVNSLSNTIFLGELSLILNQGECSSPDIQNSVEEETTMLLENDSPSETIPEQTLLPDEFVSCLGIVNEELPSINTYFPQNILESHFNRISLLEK
The experiment in a line: IL23R Reporter Assay. The class given is cell-based. Particulars: HEK293 cells containing IL-23R, IL-12RP1 and STAT-inducible firefly luciferase reporter; 10 ng/mL IL-23 (EC90); 5 h at 37° C.; read-out: IL23R Reporter Assay.

The target in series [1] is T2, interleukin-23 (IL-23) receptor (Homo sapiens, UniProt Q5VWK5).
T2 construct: Cryopreserved peripheral blood mononuclear cells (PBMCs) from healthy donors were thawed; endogenous in cells; host or cells: cryopreserved PBMCs from healthy donors, expanded 4 days on anti-CD3 with IL-1
T2 sequence (Q5VWK5 24-629): T1 sequence (Q5VWK5 24-629)
The experiment in a line: PBMC pSTAT3 assay. The class given is cell-based. As to the method: Cryopreserved peripheral blood mononuclear cells (PBMCs) from healthy donors were thawed and washed twice in ImmunoCult-XF T cell expansion medium (XF-TCEM) supplemented with CTL anti-aggregate wash. The cells were counted, resuspended at 2×10^5 cells per mL XF-TCEM supplemented with penicillin/streptomycin and 100 ng/mL IL-1 (BioLegend, 579404), and cultured in tissue culture flasks coated with anti-CD3 (eBioscience, 16-0037-85 or BD Pharmingen, 555329) at 37° C. in 5% CO2. On day 4 of culture, PBMCs were collected, washed twice in RPMI-1640 supplemented with 0.1% BSA (RPMI-BSA), and incubated in RPMI-BSA in upright tissue culture flasks for 4 hours at 37° C. in 5% CO2. Following this ‘starvation,’ a total of 6×10^4 cells in […] RPMI-BSA was transferred into each well of a 384-well plate pre-spotted with peptide or DMSO. The cells were incubated for 30 minutes prior to the addition of IL-23 at a final concentration of 5 ng/mL. The cells were stimulated with cytokine for 30 minutes at 37° C. in 5% CO2, transferred onto ice for 10 minutes, and lysed. Cell lysates were stored at −80° C. until phosphorylated STAT3 was measured using the phospho-STAT panel kit (Meso Scale Discovery, K15202D).

A short description of series [2]: Exposed Polar Surface Area (EPSA). The class given is physicochemical. Particulars: SFC on Chirex 3014 column, sample 1 mM DMSO stock. The gist of the method:
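SFC retention on a Chirex 3014 (S-valine/(R)-1-(α-naphthyl)ethylamine) column at 35 °C, 4 mL/min, 14 MPa outlet, 5–60% methanol/20 mM ammonium formate gradient in CO2. Retention times converted to EPSA (Å²) via linear calibration with 8 standards; samples from 1 mM DMSO stock, run in duplicate.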

pIC50: −log10 of the molar value. Where a name gives a salt, the structure may show the parent alone. Read-outs that look alike come from different tables or passages of the source. Starred links: 1 amine or outer side, 2 acyl side, 3 side chain; linkers in the order of their positions; H or OH if unused. Positions of bridges follow the written chain, without caps; N, C: chain ends. Non-standard residues stand in square brackets, D forms with d. Residues, ends and D or L forms follow the SMILES beside them. *: point of attachment. Me3N+CH2CH2(OCH2CH2)4CO = C[N+](C)(C)CCOCCOCCOCCOCCC(=O)*; Me3N+(CH2)2O(CH2)2O(CH2)2CO = C[N+](C)(C)CCOCCOCCC(=O)*; Trp(7-Me) = Cc1cccc2c(C[C@H](N)C(=O)O)c[nH]c12; dLys(Me3) = C[N+](C)(C)CCCC[C@@H](N)C(=O)O; X1 = CN(CC[C@H](N[*:1])C(=O)[*:2])[*:3]; 2Nal = N[C@@H](Cc1ccc2ccccc2c1)C(=O)O; AEF = NCCOc1ccc(C[C@H](N)C(=O)O)cc1; 3Pal = N[C@@H](Cc1cccnc1)C(=O)O; Lys(Me) = CNCCCC[C@H](N)C(=O)O; Pen = CC(C)(S)[C@H](N)C(=O)O; Thp = NC1(C(=O)O)CCOCC1; X3 = C[N+](C)(C)CCCCC*; Me2NCH2CH2 = CN(C)CC*; Tfa = O=C(C(F)(F)F)*; Sar = CNCC(=O)O

`CC(=O)NCCCC[C@H](NC(=O)C1(NC(=O)[C@H](Cc2ccc3ccccc3c2)NC(=O)[C@H](Cc2ccc(OCCN)cc2)NC(=O)[C@H]2NC(=O)[C@H](CCCCN(C)C(C)=O)NC(=O)[C@H](Cc3c[nH]c4c(C)cccc34)NC(=O)[C@H]([C@@H](C)O)NC(=O)[C@H](CC(N)=O)NC(=O)[C@@H](NC(C)=O)C(C)(C)SSC2(C)C)CCOCC1)C(=O)N[C@@H](CC(N)=O)C(=O)N[C@@H](Cc1cccnc1)C(=O)N(C)CC(N)=O` [SEQ ID 57] (Ac-[Pen]NT[Trp(7-Me)][Lys(Me)](Ac)[Pen][AEF][2Nal][Thp]K(Ac)N[3Pal][Sar]-NH2; disulfide 1-6): the pIC50 at IL-23R is roughly 5.20; in series [1], 11.12. Moreover, the EPSA in series [2] (listed as 1) was determined as 179.2 Å^2; in series [2] (read-out: EPSA), 166 A^2.

Turning to `Cc1cccc2c(C[C@@H]3NC(=O)[C@H]([C@@H](C)O)NC(=O)[C@H](CC(N)=O)NC(=O)[C@@H](NC(=O)C(F)(F)F)C(C)(C)SSC(C)(C)[C@@H](C(=O)N[C@@H](Cc4ccc(OCCN)cc4)C(=O)N[C@@H](Cc4ccc5ccccc5c4)C(=O)NC4(C(=O)N[C@@H](CCC(=O)N(C)C)C(=O)N[C@@H](CC(N)=O)C(=O)N[C@@H](Cc5cccnc5)C(=O)N(C)CC(N)=O)CCOCC4)NC(=O)[C@H](CCC(=O)N(C)C)NC3=O)c[nH]c12` [compound 62] (Tfa-[Pen]NT[Trp(7-Me)]E(NMe2)[Pen][AEF][2Nal][Thp]E(NMe2)N[3Pal][Sar]-NH2; disulfide 1-6 (inferred)), the pIC50 on IL-23R was 8.49; in series [1] it was 11.09. Further, in series [2] (read-out: EPSA), the EPSA worked out at 160 A^2.

Consider `CC(=O)N(C)CCCC[C@@H]1NC(=O)[C@H](Cc2c[nH]c3c(C)cccc23)NC(=O)[C@H]([C@@H](C)O)NC(=O)[C@H](CC(=O)N(C)C)NC(=O)[C@@H](NC(=O)C(F)(F)F)C(C)(C)SSC(C)(C)[C@@H](C(=O)N[C@@H](Cc2ccc(OCCN)cc2)C(=O)N[C@@H](Cc2ccc3ccccc3c2)C(=O)NC2(C(=O)N[C@@H](CCCCN(C)C(C)=O)C(=O)N[C@@H](CC(N)=O)C(=O)N[C@@H](Cc3cccnc3)C(=O)N(C)CC(=O)N(C)C)CCOCC2)NC1=O` [compound 68, CF3CO-Pen(3)-N(N(Me)2)-T-7MeW-K(NMeAc)-Pen(3)-AEF-2Nal-THP-K(NMeAc)-N-3Pya-Sar-CON(Me)2] (Tfa-[Pen]D(NMe2)T[Trp(7-Me)][Lys(Me)](Ac)[Pen][AEF][2Nal][Thp][Lys(Me)](Ac)N[3Pal][Sar]-NMe2; disulfide 1-6), for which the pIC50 in series [1] is 10.92. Also, the EPSA in series [2] (read-out: EPSA) came to 148 A^2.

`CC(=O)NCCCC[C@@H]1NC(=O)[C@H](Cc2c[nH]c3c(C)cccc23)NC(=O)[C@H]([C@@H](C)O)NC(=O)[C@H](CC(N)=O)NC(=O)[C@@H](NC(=O)CCOCCOCC[N+](C)(C)C)C(C)(C)SSC(C)(C)[C@@H](C(=O)N[C@@H](Cc2ccc(OCCN)cc2)C(=O)N[C@@H](Cc2ccc3ccccc3c2)C(=O)NC2(C(=O)N[C@@H](CCC(=O)O)C(=O)N[C@@H](CC(N)=O)C(=O)N[C@@H](Cc3cccnc3)C(=O)N(C)CC(N)=O)CCOCC2)NC1=O` [compound 82, cPEG3aCO-Pen(3)-N-T-7MeW-K(Ac)-Pen(3)-AEF-2Nal-THP-E-N-3Pya-Sar-CONH2] ({Me3N+(CH2)2O(CH2)2O(CH2)2CO}-[Pen]NT[Trp(7-Me)]K(Ac)[Pen][AEF][2Nal][Thp]EN[3Pal][Sar]-NH2; disulfide 1-6) had a pIC50 in series [1] of 11.24. Besides, in series [2] (read-out: EPSA), the EPSA turned out to be 171 A^2.

Turning to `CC(=O)N(C)CCCC[C@@H]1NC(=O)[C@H](Cc2c[nH]c3c(C)cccc23)NC(=O)[C@H]([C@@H](C)O)NC(=O)[C@H](CC(=O)N(C)C)NC(=O)[C@@H](NC(=O)C(F)(F)F)C(C)(C)SSC(C)(C)[C@@H](C(=O)N[C@@H](Cc2ccc(OCCN(C)C)cc2)C(=O)N[C@@H](Cc2ccc3ccccc3c2)C(=O)NC2(C(=O)N[C@@H](CCC(=O)O)C(=O)N[C@@H](CC(N)=O)C(=O)N[C@@H](Cc3cccnc3)C(=O)N(C)CC(=O)N(C)C)CCOCC2)NC1=O` [compound 104, CF3CO-Pen(3)-N(N(Me)2)-T-7MeW-K(NMeAc)-Pen(3)-AEF(N(Me)2)-2Nal-THP-E-N-3Pya-Sar-CON(Me)2] (Tfa-[Pen]D(NMe2)T[Trp(7-Me)][Lys(Me)](Ac)[Pen]Y(Me2NCH2CH2)[2Nal][Thp]EN[3Pal][Sar]-NMe2; disulfide 1-6), the pIC50 in series [1] was 11.49. Further, the EPSA in series [2] (read-out: EPSA) came out at 150 A^2.

In series [1], `CC(=O)N[C@H](CCCC[N+](C)(C)C)C(=O)N[C@@H]1C(=O)N[C@@H](CC(=O)N(C)C)C(=O)N[C@@H]([C@@H](C)O)C(=O)N[C@@H](Cc2c[nH]c3c(C)cccc23)C(=O)N[C@@H](CCCCN(C)C(C)=O)C(=O)N[C@H](C(=O)N[C@@H](Cc2ccc(OCCN(C)C)cc2)C(=O)N[C@@H](Cc2ccc3ccccc3c2)C(=O)NC2(C(=O)N[C@@H](CCC(=O)O)C(=O)N[C@@H](CC(N)=O)C(=O)N[C@@H](Cc3cccnc3)C(=O)N(C)CC(=O)N(C)C)CCOCC2)C(C)(C)SSC1(C)C` [compound 105, MeCO-k(Me)3-Pen(3)-N(N(Me)2)-T-7MeW-K(NMeAc)-Pen(3)-AEF(N(Me)2)-2Nal-THP-E-N-3Pya-Sar-CON(Me)2] (Ac-[dLys(Me3)][Pen]D(NMe2)T[Trp(7-Me)][Lys(Me)](Ac)[Pen]Y(Me2NCH2CH2)[2Nal][Thp]EN[3Pal][Sar]-NMe2; disulfide 2-7) gave a pIC50 of 11.12. Further, the EPSA in series [2] (read-out: EPSA) worked out at 155 A^2.

`Cc1cccc2c(C[C@@H]3NC(=O)[C@H]([C@@H](C)O)NC(=O)[C@H](CC(=O)N(C)C)NC(=O)[C@@H](NC(=O)CCOCCOCCOCCOCC[N+](C)(C)C)C(C)(C)SSC(C)(C)[C@@H](C(=O)N[C@@H](Cc4ccc(OCCN)cc4)C(=O)N[C@@H](Cc4ccc5ccccc5c4)C(=O)NC4(C(=O)N[C@@H](CCC(=O)O)C(=O)N[C@@H](CC(N)=O)C(=O)N[C@@H](Cc5cccnc5)C(=O)N(C)CC(=O)N(C)C)CCOCC4)NC(=O)[C@H](CCN(C)C(=O)CCOCCOCCOCCOCC[N+](C)(C)C)NC3=O)c[nH]c12` [compound 145, cPEG5aCO-Pen(3)-N(N(Me)2)-T-7MeW-Dab(NMecPEG5a)-Pen(3)-AEF-2Nal-THP-E-N-3Pya-Sar-CON(Me)2] ({Me3N+CH2CH2(OCH2CH2)4CO}-[Pen]D(NMe2)T[Trp(7-Me)][X1](Me3N+CH2CH2(OCH2CH2)4CO)[Pen][AEF][2Nal][Thp]EN[3Pal][Sar]-NMe2; disulfide 1-6): the pIC50 at IL-23R was 8.24; in series [1] it was 10.66. The EPSA in series [2] (read-out: EPSA) amounted to 158 A^2.

As to `CC(=O)N(C)CCCC[C@@H]1NC(=O)[C@H](Cc2c[nH]c3c(C)cccc23)NC(=O)[C@H]([C@@H](C)O)NC(=O)[C@H](CC(=O)N(C)C)NC(=O)[C@@H](NC(=O)CCOCCOCC[N+](C)(C)C)C(C)(C)SSC(C)(C)[C@@H](C(=O)N[C@@H](Cc2ccc(OCCCCC[N+](C)(C)C)cc2)C(=O)N[C@@H](Cc2ccc3ccccc3c2)C(=O)NC2(C(=O)N[C@@H](CCCCN(C)C(C)=O)C(=O)N[C@@H](CC(N)=O)C(=O)N[C@@H](Cc3cccnc3)C(=O)N(C)CC(=O)N(C)C)CCOCC2)NC1=O` [compound 164, cPEG3aCO-Pen(3)-N(N(Me)2)-T-7MeW-K(NMeAc)-Pen(3)-TMAPF-2Nal-THP-K(NMeAc)-N-3Pya-Sar-CON(Me)2] ({Me3N+(CH2)2O(CH2)2O(CH2)2CO}-[Pen]D(NMe2)T[Trp(7-Me)][Lys(Me)](Ac)[Pen]Y(X3)[2Nal][Thp][Lys(Me)](Ac)N[3Pal][Sar]-NMe2; disulfide 1-6), the pIC50 in series [1] was 10.89. The compound also displayed an EPSA in series [2] of 144.54 Å^2.

The values above are taken from patent publication US20260022143A1, “Cyclic Peptide Inhibitors of IL-23” (JANSSEN PHARMACEUTICA NV, priority 2022, published 2026).
